Target: T1, HIV protease (Human immunodeficiency virus type 1 group M subtype B, UniProt P12497)
T1 construct: the protease expressed in Eschericia coli; made in house; host or cells: Escherichia coli
Assay: Assay for inhibition of microbial expressed viral protease (peptide substrate cleavage, HPLC quantitation)
Type: biochemical
Details: protease expressed in Eschericia coli; peptide substrate Val-Ser-Gln-Asn-(betanapthyl)Ala-Pro-Ile-Val 0.5 mg/mL; 50 mM Na acetate, pH 5.5, 30°C, 1 hour; read-out: IC₅₀
Protocol: Assay for Inhibition of Microbial Expressed Viral Protease
Inhibition studies of the reaction of the protease expressed in Eschericia coli with a peptide substrate [Val-Ser-Gln-Asn-(betanapthyl)Ala-Pro-Ile-Val, 0.5 mg/mL at the time the reaction is initiated] were in 50 mM Na acetate, pH 5.5, at 30°C for 1 hour. Various concentrations of inhibitor in 1.0 ul DMAO were added to 25 ul of the peptide solution in water. The reaction is initiated by the addition of 15 ul of 0.33 nM protease (0.11 ng) in a solution of 0.133 M Na acetate pH 5.5 and 0.26% bovine serum albumin. The reaction was quenched with 160 ul of 5% phosphoric acid. Products of the reaction were separated by HPLC (VYDAC wide pore 5 cm C-18 reverse phase, acetonitrile gradient, 0.1% phosphoric acid). The extent of inhibition of the reaction was determined from the peak heights of the products.

IC50: ~5 nM
SMILES: COCCOCCOCCOCCOC(=O)N[C@@H](Cc1ccccc1)[C@@H](O)C[C@@H](Cc1ccccc1)C(=O)N[C@H]1c2ccccc2C[C@H]1O [Compound A, N-(2(R)-hydroxy-1(S)-indanyl)-5(S)-(3,6,9,12-tetraoxatridecyloxycarbonylamino)-4(S)-hydroxy-2(R)-phenylmethyl-6-phenylhexanamide]

Source: patent EP0528661A2, “HIV protease inhibitors with N-terminal polyether substituents” (MERCK & CO. INC., priority 1991, dated 1993)
